Test results taken from patent US9006250B2, “4-amino-6-(heterocyclic)picolinates and 6-amino-2-(heterocyclic)pyrimidine-4-carboxylates and their use as herbicides” (Dow AgroSciences, LLC, priority 2013, dated 2015).

Experiments:
Test in all cases: Post-Emergent Test I herbicidal activity
Format in all cases: in vivo
Settings in all cases: 4 Kg ai/ha
[1] = test system: SETFA: giant foxtail (Setaria faberi)
Protocol: (§1) Post-Emergent Test I: Seeds test species were obtained from commercial suppliers and planted into a 5″-round pot containing soil-less media mix (Metro-Mix 360®, Sun Gro Horticulture). Postemergence treatments were planted 8-12 days (d) prior to application and cultured in a greenhouse equipped with supplemental light sources to provide a 16 hour (h) photoperiod at 24-29° C. All pots were surface irrigated. Approximately 10 milligrams (mg) of each compound were dissolved in 1.3 mL acetone-DMSO (97:3, v/v) and diluted with 4.1 mL water-isopropanol-crop oil concentrate (78:20:2, v/v/v) containing 0.02% Triton X-155. Treatments were serial diluted with the above formulation solvent to provide 1.85, 0.926, 0.462 and 0.231 mg/mL of test compound delivered in 2.7 mL/pot (roughly equivalent to 4.0, 2.0, 1.0, and 0.5 kg/ha, respectively). Formulated compounds were applied using a DeVilbiss® compressed air sprayer at 2-4 pounds per square inch (psi). Following treatment, pots were returned to the greenhouse for the duration of the experiment. All pots were sub-irrigated as need to provide optimum growing conditions. All pots were fertilized one time per week by subirrigating with Peters Peat-Lite Special® fertilizer (20-10-20). Phytotoxicity ratings were obtained 10 days after treatment postemergence applications. All evaluations were made visually on a scale of 0 to 100 where 0 represents no activity and 100 represents complete plant death. Visual assessments of plant injury were made based on growth reduction, discoloration, leaf deformity and necrosis.

[2] = test system: ECHCG: barnyardgrass (Echinochloa crus-galli)
Protocol: as §1

[3] = test system: AVEFA: wild oats (Avena fatua)
Protocol: as §1

[4] = test system: IPOHE: ivyleaf morningglory (Ipomoea hederecea)
Protocol: as §1

[5] = test system: HELAN: sunflower (Helianthus annuus)
Protocol: as §1

COC(=O)c1nc(-c2cc3nonc3cc2F)nc(N)c1OC [Compound 10, Methyl 6-amino-2-(6-fluorobenzo[c][1,2,5]oxadiazol-5-yl)-5-methoxypyrimidine-4-carboxylate]
C (75-84): Visual Growth Reduction (%) 10 Days After Application SETFA [1] | Visual Growth Reduction (%) 10 Days After Application ECHCG [2] | Visual Growth Reduction (%) 10 Days After Application AVEFA [3] | Visual Growth Reduction (%) 10 Days After Application IPOHE [4] | Visual Growth Reduction (%) 10 Days After Application HELAN [5]
